Data published in ChEMBL document CHEMBL5143617 (Eur J Med Chem, 2022).
In brackets after ≈: the same amount, converted by molar mass.

Assays:
[1] = molecular target: T1, cAMP and cAMP-inhibited cGMP 3',5'-cyclic phosphodiesterase 10A (Homo sapiens, UniProt Q9Y233); assay: Inhibition of PDE10A (unknown origin) preincubated for 20 mins followed by substrate addition and measured after 1 hr by PEDlight AMP detection reagent based luminescence assay
[2] = molecular target: 5-hydroxytryptamine receptor 7 (Homo sapiens, UniProt P34969); assay: Displacement of [3H]-5-CT from human 5-HT7 receptor expressed in CHO-K1 cells membrane by scintillation counter analysis; format: cell membranes
Chain of 5-hydroxytryptamine receptor 7 (P34969 whole entry): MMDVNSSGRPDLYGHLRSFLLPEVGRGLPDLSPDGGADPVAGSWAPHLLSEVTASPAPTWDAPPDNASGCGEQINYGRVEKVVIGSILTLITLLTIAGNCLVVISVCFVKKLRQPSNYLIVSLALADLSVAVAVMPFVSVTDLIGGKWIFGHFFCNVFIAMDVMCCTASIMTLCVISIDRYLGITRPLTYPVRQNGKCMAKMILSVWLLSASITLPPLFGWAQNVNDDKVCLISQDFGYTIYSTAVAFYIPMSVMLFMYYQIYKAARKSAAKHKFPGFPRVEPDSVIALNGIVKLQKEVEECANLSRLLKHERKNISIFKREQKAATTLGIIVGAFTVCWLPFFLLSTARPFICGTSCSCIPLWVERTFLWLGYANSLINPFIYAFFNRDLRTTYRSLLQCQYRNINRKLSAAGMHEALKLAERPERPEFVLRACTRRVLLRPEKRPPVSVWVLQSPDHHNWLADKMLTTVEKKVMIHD

[3] = molecular target: 5-hydroxytryptamine receptor 2A (Homo sapiens, UniProt P28223); assay: Binding affinity to 5HT-2A receptor (unknown origin)
Chain of 5-hydroxytryptamine receptor 2A (P28223 whole entry): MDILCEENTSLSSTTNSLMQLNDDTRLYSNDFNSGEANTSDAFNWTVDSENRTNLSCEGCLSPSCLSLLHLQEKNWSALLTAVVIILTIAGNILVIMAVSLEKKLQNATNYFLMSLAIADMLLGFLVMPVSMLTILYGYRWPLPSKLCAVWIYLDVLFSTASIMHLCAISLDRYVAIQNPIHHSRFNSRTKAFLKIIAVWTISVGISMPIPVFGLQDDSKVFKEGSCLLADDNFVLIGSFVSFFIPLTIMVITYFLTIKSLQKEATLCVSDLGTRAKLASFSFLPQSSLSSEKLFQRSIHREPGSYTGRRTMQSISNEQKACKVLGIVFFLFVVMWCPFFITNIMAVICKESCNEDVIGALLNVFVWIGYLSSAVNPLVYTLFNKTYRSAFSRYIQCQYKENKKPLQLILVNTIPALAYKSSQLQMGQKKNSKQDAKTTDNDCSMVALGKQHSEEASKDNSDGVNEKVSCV

[4] = molecular target: D(2) dopamine receptor (Homo sapiens, UniProt P14416); assay: Binding affinity to dopamine D2 receptor (unknown origin)
Chain of D(2) dopamine receptor (P14416 whole entry): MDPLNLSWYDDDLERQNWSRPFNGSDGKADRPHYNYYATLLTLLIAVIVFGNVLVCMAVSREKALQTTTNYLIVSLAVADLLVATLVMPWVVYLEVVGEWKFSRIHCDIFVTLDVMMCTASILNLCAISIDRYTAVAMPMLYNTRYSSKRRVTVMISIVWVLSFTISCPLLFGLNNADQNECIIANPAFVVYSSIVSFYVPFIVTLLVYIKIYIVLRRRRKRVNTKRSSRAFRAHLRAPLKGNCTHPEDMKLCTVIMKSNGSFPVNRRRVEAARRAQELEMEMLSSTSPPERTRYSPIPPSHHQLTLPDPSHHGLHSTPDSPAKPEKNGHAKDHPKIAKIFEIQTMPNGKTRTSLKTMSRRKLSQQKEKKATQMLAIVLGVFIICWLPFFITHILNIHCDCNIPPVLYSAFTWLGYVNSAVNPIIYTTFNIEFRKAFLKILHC

[5] = molecular target: T2, Adrenergic receptor alpha-1 (Homo sapiens, UniProt P35348+P25100+P35368); assay: Binding affinity to adrenergic alpha 1 receptor (unknown origin); format: protein assay
T2 sequence (P35348 whole entry): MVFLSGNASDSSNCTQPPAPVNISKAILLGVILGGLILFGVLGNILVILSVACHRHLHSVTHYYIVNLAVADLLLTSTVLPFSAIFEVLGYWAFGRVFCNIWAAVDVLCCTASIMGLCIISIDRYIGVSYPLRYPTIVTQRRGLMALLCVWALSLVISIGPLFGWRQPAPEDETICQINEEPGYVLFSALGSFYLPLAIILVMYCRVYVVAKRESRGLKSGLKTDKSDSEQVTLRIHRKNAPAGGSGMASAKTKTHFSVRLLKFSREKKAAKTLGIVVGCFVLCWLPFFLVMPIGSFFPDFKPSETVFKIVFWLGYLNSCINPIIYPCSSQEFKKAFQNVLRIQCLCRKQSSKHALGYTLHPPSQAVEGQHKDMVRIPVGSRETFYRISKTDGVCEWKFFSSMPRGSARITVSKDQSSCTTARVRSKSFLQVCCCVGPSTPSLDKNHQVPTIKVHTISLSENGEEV
T2 sequence (P25100 whole entry): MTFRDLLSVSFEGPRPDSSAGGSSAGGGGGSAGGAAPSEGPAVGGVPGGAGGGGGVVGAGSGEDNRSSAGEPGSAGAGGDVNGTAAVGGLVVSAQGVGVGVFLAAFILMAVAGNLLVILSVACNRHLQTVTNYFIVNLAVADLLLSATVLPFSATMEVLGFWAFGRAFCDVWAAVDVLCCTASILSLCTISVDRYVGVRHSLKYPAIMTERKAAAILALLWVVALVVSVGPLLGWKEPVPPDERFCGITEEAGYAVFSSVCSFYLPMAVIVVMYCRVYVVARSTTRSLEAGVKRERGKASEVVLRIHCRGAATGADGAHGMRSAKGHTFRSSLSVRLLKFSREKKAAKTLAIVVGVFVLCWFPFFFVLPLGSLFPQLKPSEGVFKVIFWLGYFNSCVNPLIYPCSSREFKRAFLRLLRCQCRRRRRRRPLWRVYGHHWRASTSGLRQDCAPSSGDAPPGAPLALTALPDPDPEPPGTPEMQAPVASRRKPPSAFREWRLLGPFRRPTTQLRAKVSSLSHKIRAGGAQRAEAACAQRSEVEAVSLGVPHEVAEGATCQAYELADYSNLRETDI
T2 sequence (P35368 whole entry): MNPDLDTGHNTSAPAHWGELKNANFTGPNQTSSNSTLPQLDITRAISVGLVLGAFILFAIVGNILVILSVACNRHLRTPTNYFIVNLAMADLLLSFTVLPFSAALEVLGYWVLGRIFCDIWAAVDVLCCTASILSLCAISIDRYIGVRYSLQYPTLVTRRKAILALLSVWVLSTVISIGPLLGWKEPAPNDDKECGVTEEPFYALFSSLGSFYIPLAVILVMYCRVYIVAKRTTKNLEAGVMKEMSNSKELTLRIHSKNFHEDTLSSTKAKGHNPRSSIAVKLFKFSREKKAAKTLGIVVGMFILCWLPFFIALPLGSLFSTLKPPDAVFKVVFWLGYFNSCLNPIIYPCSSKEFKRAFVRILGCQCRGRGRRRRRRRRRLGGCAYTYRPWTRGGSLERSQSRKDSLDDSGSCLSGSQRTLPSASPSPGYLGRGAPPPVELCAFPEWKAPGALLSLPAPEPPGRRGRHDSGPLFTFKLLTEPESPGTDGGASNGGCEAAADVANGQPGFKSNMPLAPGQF

[6] = Metabolic stability in human liver microsomes assessed as intrinsic clearance
[7] = Tmax in mouse plasma at 1.25 mg/kg, ip measured up to 480 mins by LC/ESI-MS/MS analysis; format: ADME, organism-based
[8] = Cmax in mouse plasma at 1.25 mg/kg, ip measured up to 480 mins by LC/ESI-MS/MS analysis; format: ADME, organism-based; set-up: time < 480 min, dose 1.25 mg/kg, route ip
[9] = AUC(0 to t) in mouse plasma at 1.25 mg/kg, ip measured up to 480 mins by LC/ESI-MS/MS analysis; format: ADME, organism-based; set-up: dose 1.25 mg/kg, time < 480 min, route ip; conditions: in vivo, 8 h
[10] = Apparent volume of distribution in mouse plasma at 1.25 mg/kg, ip measured up to 480 mins by LC/ESI-MS/MS analysis; format: ADME, organism-based
[11] = Tmax in mouse hippocampus at 1.25 mg/kg, ip by LC/ESI-MS/MS analysis; format: ADME, organism-based
[12] = Cmax in mouse hippocampus at 1.25 mg/kg, ip by LC/ESI-MS/MS analysis; format: ADME, organism-based; set-up: dose 1.25 mg/kg, route ip
[13] = AUC(0 to t) in mouse hippocampus at 1.25 mg/kg, ip by LC/ESI-MS/MS analysis; format: ADME, organism-based; set-up: dose 1.25 mg/kg, route ip
[14] = AUC(0 to t) in mouse striatum at 1.25 mg/kg, ip by LC/ESI-MS/MS analysis; format: ADME, organism-based; set-up: dose 1.25 mg/kg, route ip
[15] = Tmax in mouse striatum at 1.25 mg/kg, ip by LC/ESI-MS/MS analysis; format: ADME, organism-based
[16] = Cmax in mouse striatum at 1.25 mg/kg, ip by LC/ESI-MS/MS analysis; format: ADME, organism-based; set-up: dose 1.25 mg/kg, route ip
[17] = Tmax in mouse frontal cortex at 1.25 mg/kg, ip by LC/ESI-MS/MS analysis; format: ADME, organism-based
[18] = Cmax in mouse frontal cortex at 1.25 mg/kg, ip by LC/ESI-MS/MS analysis; format: ADME, organism-based; set-up: dose 1.25 mg/kg, route ip
[19] = AUC(0 to t) in mouse frontal cortex at 1.25 mg/kg, ip by LC/ESI-MS/MS analysis; format: ADME, organism-based; set-up: dose 1.25 mg/kg, route ip
[20] = molecular target: T3, 5-hydroxytryptamine receptor 1A (Homo sapiens, UniProt P08908); assay: Displacement of [3H]-[…] from human 5-HT1A receptor expressed in CHO-K1 cells membrane by scintillation counter analysis; format: cell membranes
T3 sequence (P08908 whole entry): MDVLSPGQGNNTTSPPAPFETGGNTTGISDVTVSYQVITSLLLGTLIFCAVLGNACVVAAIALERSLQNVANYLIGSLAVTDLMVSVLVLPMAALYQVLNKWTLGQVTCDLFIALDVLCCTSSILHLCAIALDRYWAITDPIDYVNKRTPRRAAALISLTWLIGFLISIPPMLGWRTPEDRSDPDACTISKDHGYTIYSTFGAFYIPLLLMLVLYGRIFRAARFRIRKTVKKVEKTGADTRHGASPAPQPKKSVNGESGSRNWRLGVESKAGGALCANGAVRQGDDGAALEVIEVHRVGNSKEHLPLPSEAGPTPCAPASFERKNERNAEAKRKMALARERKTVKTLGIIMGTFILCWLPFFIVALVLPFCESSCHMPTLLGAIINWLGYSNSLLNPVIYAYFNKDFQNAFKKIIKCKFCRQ

[21] = molecular target: T1, cAMP and cAMP-inhibited cGMP 3',5'-cyclic phosphodiesterase 10A; assay: Inhibition of PDE10A (unknown origin) at 10 uM preincubated for 20 mins followed by substrate addition and measured after 1 hr by PEDlight AMP detection reagent based luminescence assay relative to control; conditions: time 80.0 min
[22] = Aqueous solubility of compound in PBS buffer at pH 7.4 by UV absorbance based analysis; format: physicochemical

T1 sequence (Q9Y233 whole entry): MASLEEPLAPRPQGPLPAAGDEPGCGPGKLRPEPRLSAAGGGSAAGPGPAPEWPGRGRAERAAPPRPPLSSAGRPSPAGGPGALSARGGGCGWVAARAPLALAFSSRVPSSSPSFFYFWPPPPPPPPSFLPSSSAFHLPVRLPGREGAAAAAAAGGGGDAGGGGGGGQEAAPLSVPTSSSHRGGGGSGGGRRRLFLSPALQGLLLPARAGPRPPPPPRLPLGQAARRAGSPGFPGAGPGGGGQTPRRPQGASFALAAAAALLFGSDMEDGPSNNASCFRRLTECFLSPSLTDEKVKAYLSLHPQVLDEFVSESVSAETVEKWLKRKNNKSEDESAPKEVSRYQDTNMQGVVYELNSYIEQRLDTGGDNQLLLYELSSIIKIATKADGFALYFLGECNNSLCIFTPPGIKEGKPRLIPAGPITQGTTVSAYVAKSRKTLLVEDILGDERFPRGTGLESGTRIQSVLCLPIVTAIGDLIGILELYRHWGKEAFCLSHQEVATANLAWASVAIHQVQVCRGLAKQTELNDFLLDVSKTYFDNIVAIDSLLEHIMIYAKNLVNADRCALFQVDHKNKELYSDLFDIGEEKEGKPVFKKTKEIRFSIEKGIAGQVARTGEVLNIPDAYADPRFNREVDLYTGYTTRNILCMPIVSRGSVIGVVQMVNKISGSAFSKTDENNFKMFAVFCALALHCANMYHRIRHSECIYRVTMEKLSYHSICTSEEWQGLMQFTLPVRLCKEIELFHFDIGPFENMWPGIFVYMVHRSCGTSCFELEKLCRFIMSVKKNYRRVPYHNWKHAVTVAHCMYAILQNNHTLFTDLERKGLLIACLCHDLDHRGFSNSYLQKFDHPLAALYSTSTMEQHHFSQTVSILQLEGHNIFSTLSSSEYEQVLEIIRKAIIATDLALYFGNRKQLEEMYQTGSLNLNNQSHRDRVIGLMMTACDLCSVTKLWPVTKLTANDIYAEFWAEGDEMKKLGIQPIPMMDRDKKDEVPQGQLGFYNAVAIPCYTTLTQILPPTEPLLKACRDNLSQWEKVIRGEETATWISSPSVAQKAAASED

| SMILES | Ki [2] | Ki [20] | inhibition [21] | further results |
| --- | --- | --- | --- | --- |
| COc1cc2ncnc(N3CCN(Cc4ccc5ccccc5n4)CC3)c2cc1OC | > 1000 nM | > 1000 nM | 8% |  |
| COc1cc2ncnc(N3CCC(CN4CCc5ccccc5C4)C3)c2cc1OC (stereo not drawn) | 603 nM | > 1000 nM | 40% | IC50 [1]: 105000 nM |
| COc1cc2ncnc(N3CCC(CN4CCN(c5cccc(Cl)c5)CC4)C3)c2cc1OC (stereo not drawn) | 372 nM | 30.2 nM | 4% |  |
| O=c1[nH]c2cccc(N3CCN(Cc4nc5ccccc5[nH]4)CC3)c2[nH]1 | > 1000 nM | > 1000 nM | 23% | IC50 [1]: 4070 nM |
| COc1cc2ncnc(N3CCC(CN4CCN(c5ccccc5OC)CC4)C3)c2cc1OC (stereo not drawn) | 56.2 nM | 1.62 nM | 16% |  |
| c1ccc2nc(CN3CCN(c4cccc5cn[nH]c45)CC3)ccc2c1 | > 1000 nM | > 1000 nM |  |  |
| c1cc(N2CCN(c3cccc4cn[nH]c34)CC2)c2ncncc2c1 | > 1000 nM | > 1000 nM | 3% |  |
| COCCc1ccc(OCC(O)CNC(C)C)cc1 (stereo not drawn) [METOPROLOL] |  |  |  | solubility [22]: 200 µM (≈ 53.5 µg/mL) |
| COc1cc2ncnc(N3CCC(CN4CCN(c5cccc(Cl)c5Cl)CC4)C3)c2cc1OC (stereo not drawn) | 347 nM | 10.7 nM | 6% |  |

Continued, in another order:

| Ki [2] | Ki [20] | inhibition [21] | SMILES | further results |
| --- | --- | --- | --- | --- |
| 234 nM |  |  | COc1cccc(N2CCN(CC3CCN(c4ncnc5cc(OC)c(OC)cc45)C3)CC2)c1 (stereo not drawn) | IC50 [1]: 7080 nM; Ki [3]: > 1000 nM; Ki [4]: > 1000 nM; pKi [5]: 6.58; microsomal CLint [6]: 292 µL/min/mg; Tmax [7]: 5 min; Cmax [8]: 13.3 ng/mL; AUCt [9]: 1164 ng·min/mL; Vd/F [10]: 0.253 L/kg; Tmax [11]: 30 min; Cmax [12]: 436 ng/mL; AUC(0-t) [13]: 906 ng·h/mL; AUC(0-t) [14]: 438 ng·h/mL; Tmax [15]: 30 min; Cmax [16]: 303 ng/mL; Tmax [17]: 15 min; Cmax [18]: 210 ng/mL; AUC(0-t) [19]: 726 ng·h/mL |
| > 1000 nM | 468 nM | 18% | COc1cc2ncnc(N3CCC(CN4CCN(c5ccc(O)cc5)CC4)C3)c2cc1OC (stereo not drawn) |  |
| > 1000 nM | 87.1 nM |  | c1cc(N2CCN(Cc3cnc4ccccc4n3)CC2)c2[nH]ncc2c1 |  |
| > 1000 nM | 83.2 nM | 9% | O=c1[nH]c2cccc(N3CCN(Cc4cnc5ccccc5n4)CC3)c2[nH]1 |  |
